From patent US9096591B2, “Tetracyclic compounds” (Medivation Technologies, Inc., priority 2007, dated 2015)
Like-named read-outs stand apart in the source and are kept apart here.

Key:
[1] = molecular target: T1, human recombinant dopamine D2L receptor (Homo sapiens, UniProt P14416); test: Dopamine D2L radioligand binding ([3H]Spiperone); settings: percent inhibition of specific binding
T1 construct: expressed in transfected cells; host or cells: CHO cells
Protocol: Non-specific binding was estimated in the presence of 10 μM Haloperidol. Receptor proteins were filtered and washed, the filters were then counted to determine [^3H]Spiperone specifically bound. […] Biochemical assay results are presented as the percent inhibition of specific binding in Table 6.

[2] = molecular target: T2, human recombinant histamine H1 receptor (Homo sapiens, UniProt P35367); test: Histamine H1 radioligand binding ([3H]Pyrilamine); settings: for inhibition at 0.03 µM: 0.03 μM compound; for inhibition at 0.1 µM: 0.1 μM compound; for inhibition at 0.01 µM: 10 nM (0.01 μM) compound
T2 construct: expressed in transfected cells; host or cells: CHO cells
Procedure, shortened: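 Receptor expressed in CHO cells, assayed in 50 mM Tris-HCl pH 7.4 with 2 mM MgCl2, 100 mM NaCl, 250 mM sucrose. Compounds tested at 1 μM in 1% DMSO; non-specific binding set with 1 μM pyrilamine. Filter-bound radioactivity counted; values are percent inhibition of specific binding.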

[3] = molecular target: T3, human recombinant serotonin (5-Hydroxytryptamine) 5-HT6 receptor (Homo sapiens, UniProt P50406); test: Serotonin 5-HT6 radioligand binding ([3H]LSD); design: Inhibition of ligand binding, Ser. 5-HT6: concentration or dose not given beside the values; settings: for Inhibition of ligand binding, Ser. 5-HT6: percent inhibition of specific binding
T3 construct: expressed in transfected cells; host or cells: human HeLa cells
Text: Receptor proteins were filtered and washed, the filters were then counted to determine [3H]LSD specifically bound. […] Biochemical assay results are presented as the percent inhibition of specific binding in Table 6.

[4] = molecular target: T4, human recombinant adrenergic α2A receptor (Homo sapiens, UniProt P08913); test: Adrenergic α2A radioligand binding ([3H]MK-912); design: Inhibition of ligand binding, Adren. alpha2A: concentration or dose not given beside the values; settings: for Inhibition of ligand binding, Adren. alpha2A: percent inhibition of specific binding
T4 construct: expressed in transfected cells; host or cells: insect Sf9 cells
T4 sequence (P08913 1-465): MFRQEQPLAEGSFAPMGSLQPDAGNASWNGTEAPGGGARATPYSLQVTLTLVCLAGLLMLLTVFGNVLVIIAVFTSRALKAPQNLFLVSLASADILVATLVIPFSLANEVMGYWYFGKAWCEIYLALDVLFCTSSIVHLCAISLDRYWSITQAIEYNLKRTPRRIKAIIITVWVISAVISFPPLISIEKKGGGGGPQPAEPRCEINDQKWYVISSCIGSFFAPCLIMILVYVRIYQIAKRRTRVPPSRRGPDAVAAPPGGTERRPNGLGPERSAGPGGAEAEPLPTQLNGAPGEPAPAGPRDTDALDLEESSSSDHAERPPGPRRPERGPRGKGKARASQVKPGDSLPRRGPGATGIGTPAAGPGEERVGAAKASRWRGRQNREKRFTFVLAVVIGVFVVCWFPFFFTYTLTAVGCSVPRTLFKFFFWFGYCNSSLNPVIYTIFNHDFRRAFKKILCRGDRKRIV
Protocol: To evaluate in radioligand binding assays the activity of compounds of the invention, human recombinant adrenergic α2A receptor expressed in insect Sf9 cells (Uhlen S et al. J Pharmacol Exp Ther. 271:1558, 1994) in a modified Tris-HCl buffer (50 mM Tris-HCl, pH 7.4, 12.5 mM MgCl2, 2 mM EDTA) was used. Compounds of invention were incubated with 1 nM [^3H]MK-912 for 60 minutes at 25° C. MK912 is (2S-trans)-1,3,4,5′,6,6′,7,12b-octahydro-1′,3′-dimethyl-spiro[2H-benzofuro[2,3-a]quinolizine-2,4′(1′H)-pyrimidin]-2′(3′H)-one hydrochloride Non-specific binding was estimated in the presence of 10 μM WB-4101 (2-(2,6-Dimethoxyphenoxyethyl)aminomethyl-1,4-benzodioxane hydrochloride). Receptor proteins were filtered and washed, the filters were then counted to determine [^3H]MK-912 specifically bound. […] Biochemical assay results are presented as the percent inhibition of specific binding in Table 6.

[5] = molecular target: T5, human recombinant adrenergic α2B receptor (Homo sapiens, UniProt P18089); test: Adrenergic α2B radioligand binding ([3H]Rauwolscine); design: Inhibition of ligand binding, Adren. alpha2B: concentration or dose not given beside the values; settings: for Inhibition of ligand binding, Adren. alpha2B: percent inhibition of specific binding
T5 construct: expressed in transfected cells; host or cells: CHO-K1 cells
T5 sequence (P18089 1-450): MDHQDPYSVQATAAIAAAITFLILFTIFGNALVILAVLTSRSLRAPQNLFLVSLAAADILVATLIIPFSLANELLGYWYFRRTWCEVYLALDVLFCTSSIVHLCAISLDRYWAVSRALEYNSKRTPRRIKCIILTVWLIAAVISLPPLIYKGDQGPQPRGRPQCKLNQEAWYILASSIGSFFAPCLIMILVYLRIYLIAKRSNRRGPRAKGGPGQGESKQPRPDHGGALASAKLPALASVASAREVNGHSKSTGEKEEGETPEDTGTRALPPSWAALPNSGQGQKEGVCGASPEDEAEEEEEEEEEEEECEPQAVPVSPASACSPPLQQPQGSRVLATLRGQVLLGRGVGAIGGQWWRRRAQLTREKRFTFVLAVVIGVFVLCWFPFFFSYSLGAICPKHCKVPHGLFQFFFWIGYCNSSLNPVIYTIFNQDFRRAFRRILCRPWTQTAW
Protocol: To evaluate in radioligand binding assays the activity of compounds of the invention, human recombinant adrenergic α2B receptor expressed in Chinese hamster ovary (CHO-K1) cells (Uhlen S et al. Eur J. Pharmacol. 343(1):93, 1998) in a modified Tris-HCl buffer (50 mM Tris-HCl, pH 7.4, 12.5 mM MgCl2, 1 mM EDTA, 0.2% BSA) was used. Compounds of the invention were incubated with 2.5 nM [^3H]Rauwolscine for 60 minutes at 25° C. Non-specific binding was estimated in the presence of 10 μM Prozosin. Receptor proteins were filtered and washed, the filters were then counted to determine [^3H]Rauwolscine specifically bound. […] Biochemical assay results are presented as the percent inhibition of specific binding in Table 6.

[6] = […] [3H]Pyrilamine, read-out: Histamine Binding H1, percent inhibition of specific binding
[7] = 1 μM compound, […] [3H]Pyrilamine, read-out: Histamine Binding H1, percent inhibition of specific binding
[8] = percent inhibition of specific binding, screened at 1 μM, read-out: Inhibition of ligand binding, Hist. H1

T3 sequence (P50406 whole entry): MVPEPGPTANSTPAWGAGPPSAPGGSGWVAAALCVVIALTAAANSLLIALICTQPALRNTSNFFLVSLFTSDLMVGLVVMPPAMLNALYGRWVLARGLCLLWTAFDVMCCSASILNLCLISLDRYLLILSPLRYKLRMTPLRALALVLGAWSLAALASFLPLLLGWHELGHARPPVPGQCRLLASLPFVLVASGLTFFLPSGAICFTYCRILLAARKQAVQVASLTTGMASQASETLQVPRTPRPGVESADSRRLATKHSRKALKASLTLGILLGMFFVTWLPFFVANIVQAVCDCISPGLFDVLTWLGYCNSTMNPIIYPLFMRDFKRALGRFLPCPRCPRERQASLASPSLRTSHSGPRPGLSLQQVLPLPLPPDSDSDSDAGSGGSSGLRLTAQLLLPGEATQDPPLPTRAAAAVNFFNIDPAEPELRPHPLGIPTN
T1 sequence (P14416 whole entry): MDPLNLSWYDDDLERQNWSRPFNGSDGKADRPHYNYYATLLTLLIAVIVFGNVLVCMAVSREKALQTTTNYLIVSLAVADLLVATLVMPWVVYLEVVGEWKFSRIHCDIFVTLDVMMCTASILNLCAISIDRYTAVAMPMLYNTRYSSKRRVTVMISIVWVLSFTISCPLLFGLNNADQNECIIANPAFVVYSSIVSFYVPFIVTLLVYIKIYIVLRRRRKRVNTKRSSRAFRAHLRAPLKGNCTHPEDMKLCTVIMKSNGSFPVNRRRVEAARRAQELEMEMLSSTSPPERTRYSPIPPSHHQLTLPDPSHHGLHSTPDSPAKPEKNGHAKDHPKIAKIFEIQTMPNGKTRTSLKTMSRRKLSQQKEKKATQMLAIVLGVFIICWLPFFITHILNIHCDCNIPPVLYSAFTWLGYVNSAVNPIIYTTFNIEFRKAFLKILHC
T2 sequence (P35367 whole entry): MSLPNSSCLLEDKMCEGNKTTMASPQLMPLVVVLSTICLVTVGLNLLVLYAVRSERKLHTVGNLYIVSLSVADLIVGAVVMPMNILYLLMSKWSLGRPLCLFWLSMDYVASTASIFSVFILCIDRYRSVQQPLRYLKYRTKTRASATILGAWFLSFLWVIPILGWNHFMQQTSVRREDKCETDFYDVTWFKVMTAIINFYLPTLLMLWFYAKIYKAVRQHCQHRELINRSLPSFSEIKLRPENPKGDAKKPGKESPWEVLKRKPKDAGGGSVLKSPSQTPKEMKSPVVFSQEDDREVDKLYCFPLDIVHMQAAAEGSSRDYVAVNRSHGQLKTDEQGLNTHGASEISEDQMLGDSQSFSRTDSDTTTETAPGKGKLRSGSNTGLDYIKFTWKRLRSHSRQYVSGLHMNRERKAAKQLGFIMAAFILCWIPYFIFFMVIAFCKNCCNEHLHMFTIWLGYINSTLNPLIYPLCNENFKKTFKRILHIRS

SMILES	Inhibition of ligand binding, Dop. D2L [1] [%]	inhibition at 0.03 µM [2, 6] [%]	inhibition at 0.1 µM [2, 6] [%]	inhibition at 1 µM [2, 7] [%]	inhibition at 1 µM [2, 8] [%]	Inhibition of ligand binding, Ser. 5-HT6 [3] [%]	Inhibition of ligand binding, Adren. alpha2A [4] [%]	Inhibition of ligand binding, Adren. alpha2B [5] [%]	inhibition at 0.004 µM ([2]; 4 nM compound, […] [3H]Pyrilamine, read-out: Histamine Binding H1, percent inhibition of specific binding) [%]	inhibition at 0.02 µM ([2]; 0.02 μM compound, […] [3H]Pyrilamine, read-out: Histamine Binding H1, percent inhibition of specific binding) [%]	inhibition at 0.01 µM [2, 6] [%]	Adren. alpha2B ([5]; inhibition profile)	Hist. H1 ([2]; inhibition profile)	Ser. 5-HT6 ([3]; inhibition profile)	Adren. alpha2A ([4]; inhibition profile)
Cc1ccc(CCn2c3c(c4ccccc42)CN(C)CC3)cc1 [Compound 1, 2,3,4,5-tetrahydro-2-methyl-5-(4-methylphenethyl)-1H-pyrido[4,3-b]indole]	62	32	56	91	91	87	99	–	–	–	–	–	–	–	–
Cc1ccc2c(c1)c1c(n2CCc2ccccc2)CCN(C)C1 [Compound 20, 2,3,4,5-tetrahydro-2,8-dimethyl-5-phenethyl-1H-pyrido[4,3-b]indole]	87	–	93	97	97	–	98	108	34	73	–	–	–	–	–
Cc1ccc2c(c1)c1c(n2CCc2ccncc2)CCN(C)C1 [Compound 22, 2,3,4,5-tetrahydro-2,8-dimethyl-5-(2-(pyridin-4-yl)ethyl)-1H-pyrido[4,3-b]indole]	27	63	–	100	100	–	72	105	–	–	36	–	–	–	–
Cc1ccc2c(c1)c1c(n2CCc2ccccc2F)CCN(C)C1 [Compound 34, 5-(2-fluorophenethyl)-2,3,4,5-tetrahydro-2,8-dimethyl-1H-pyrido[4,3-b]indole]	88	–	67	96	96	104	99	–	–	–	22	–	–	–	–
CCN1CCc2c(c3cc(C)ccc3n2Cc2ccccc2)C1 [Compound 140, 5-benzyl-2-ethyl-2,3,4,5-tetrahydro-8-methyl-1H-pyrido[4,3-b]indole]	–	–	–	15	15	8	17	−4	–	–	–	–	–	–	–
Cc1ccc2c(c1)c1c(n2CCN2CCCC2)CCN(C)C1 [Compound 221, 2,3,4,5-tetrahydro-2,8-dimethyl-5-(2-(pyrrolidin-1-yl)ethyl)-1H-pyrido[4,3-b]indole]	–	–	–	78	78	29	37	26	–	–	–	–	–	–	–
Cc1ccc2c(c1)c1c(n2CCc2ccc(C)nc2)CCNC1 [Compound 230, 2,3,4,5-tetrahydro-8-methyl-5-(2-(6-methylpyridin-3-yl)ethyl)-1H-pyrido[4,3-b]indole]	–	–	–	46	93	45	56	104	–	–	–	–	–	–	–
Cc1ccc2c(c1)c1c(n2CCC(=O)N2CCC(N)CC2)CCN(C)C1 [Compound 231, 1-(4-aminopiperidin-1-yl)-3-(1,2,3,4-tetrahydro-2,8-dimethylpyrido[4,3-b]indol-5-yl)propan-1-one]	–	–	–	-11	-11	3	29	11	–	–	–	–	–	–	–
Cc1ccc2c(c1)c1c(n2CCc2ccc(C)nc2)C(Br)C(=O)N(C)C1 (stereo not shown) [Compound 232, 4-bromo-1,2-dihydro-2,8-dimethyl-5-(2-(6-methylpyridin-3-yl)ethyl)-4H-pyrido[4,3-b]indol-3(5H)-one]	–	–	–	-6	-6	−7	2	8	–	–	–	–	–	–	–
Cc1ccc2c(c1)c1c(n2CCCc2ccccn2)CCN(C)C1 [Compound 233, 2,3,4,5-tetrahydro-2,8-dimethyl-5-(3-(pyridin-2-yl)propyl)-1H-pyrido[4,3-b]indole]	–	–	–	99	99	95	90	96	–	–	–	–	–	–	–
Cc1ccc2c(c1)c1c(n2CCc2ccc(C(=O)O)nc2)CCN(C)C1 [Compound 255]	–	–	–	71	71	2	−8	4	–	–	–	–	–	–	–
Cc1ccc(CCn2c3c(c4cc(C(=O)O)ccc42)CNCC3)cn1 [Compound 274, 2,3,4,5-tetrahydro-5-(2-(6-methylpyridin-3-yl)ethyl)-1H-pyrido[4,3-b]indole-8-carboxylic acid]	–	–	–	–	1	−2	7	9	–	–	–	–	–	–	–
CN1CCc2c(c3ccccc3n2CCc2ccccn2)C1 [Compound 329, 2,3,4,5-tetrahydro-2-methyl-5-(2-(pyridin-2-yl)ethyl)-1H-pyrido[4,3-b]indole]	–	–	–	–	18	15	37	68	–	–	–	–	–	–	–
Cc1ccc2c(c1)c1c(n2CCc2ccc(C)nc2)CC[N+](C)([O-])C1 (stereo not shown) [Example 93, 2,8-dimethyl-5-(2-(6-methylpyridin-3-yl)ethyl)-2,3,4,5-tetrahydro-1H-pyrido[4,3-b]indole 2-oxide]	–	–	–	–	–	–	–	–	–	–	–	36	68	11	1
